Source: patent EP1289507B1, “USE OF AN ALDOSTERONE ANTAGONIST FOR THE TREATMENT OR PROPHYLAXIS OF ALDOSTERONE-MEDIATED PATHOGENIC EFFECTS” (priority 2000, dated 2001)
Where two headings read alike, the source gives them in different places.

Assays:
[1] = test system: patients with hypertension; test: Clinical efficacy in hypertension: randomized double-blind study, cuff and ambulatory blood pressure; type: in vivo; settings: 100 mg/day (50 BID)
Description: A multicenter, randomized, double-blind, parallel group study was conducted in patients with hypertension. […] The study consisted of a two-week pretreatment period for completion of screening procedures and discontinuation of any current antihypertensive medication(s). The screening period was followed by a four-week single-blind placebo lead-in treatment period.
The primary efficacy measure was the change from baseline in cuff diastolic blood pressure measured at trough as compared to placebo. Secondary efficacy measures included changes in cuff assessed trough systolic blood pressure and changes in average 24-hour diastolic and systolic blood pressure assessed by ambulatory blood pressure monitoring. Safety was assessed by conducting routine clinical lab tests, physical exams, ECGs, and monitoring for adverse events.

[2] = test system: Volume Expanded Hypertensive Rats; settings: averaged for 24 hours after three weeks
[3] = test system: patients with severe heart failure; settings: added to ACE inhibitor plus loop diuretic; cited from earlier work
[4] = test system: captopril-treated, saline-drinking SHRSP; test: Protocol 2: Angiotensin II-induced renal damage in captopril-treated saline-drinking SHRSP; type: in vivo, male SHRSP/A3N
Description: Animals. Studies were conducted in accordance with institutional guidelines using male SHRSP/A3N (generations F-75 to F-78), n = 37, from our local colony. These animals were bred from NIH stock, derived from the SHRSP/A3N substrain described originally by Okamoto and coworkers (Okamoto K et al. Circ. Res. 34 and 35 (suppl I):I-143-I-153.). All animals were housed in a room maintained on a 12:12-h light:dark-cycle and an ambient temperature of 22 ± 1°C in the Animal Care Facility at New York Medical College. Rats were weaned at 4 weeks of age and allowed free access to Purina Lab Chow 5001 (Ralston Purina, St. Louis, MO) and tap water until the initiation of experimental protocols.
SHRSP were placed on Stroke-Prone Rodent Diet (#39-288, Zeigler Bros Inc., Gardners, PA) and 1% NaCl drinking solution ad libitum starting at 8.3 weeks of age. […] Animals were handled and weighed daily. Urine samples were collected for the assessment of proteinuria. Systolic blood pressure and heart rate were measured each week. After 2 weeks of treatment, animals were decapitated, trunk blood was collected into chilled EDTA tubes, and the kidneys were removed, blotted dry, and immediately weighed. Coronal sections of kidney were fixed and later processed for light microscopic evaluation.
Assays and Analyses. Systolic blood pressure and heart rate of awake animals were measured by tail-cuff plethysmography using a Natsume KN-210 manometer and tachometer (Peninsula Laboratories Inc., Belmont, CA). Rats were warmed at 37°C for 10 min and allowed to rest quietly in a Lucite chamber before measurement of blood pressure. Measurements of urine volume were made gravimetrically. Urinary protein concentration was determined by the sulfosalicylic acid turbidity method. Plasma aldosterone was measured by radioimmunoassay using ^125I-aldosterone as a tracer (Coat-a Count Aldosterone, Diagnostic Products Co., Los Angeles, CA).
Histology. Kidneys were preserved in 10% phosphate-buffered formalin. Coronal sections (2-3 µm) were stained with hematoxylin and eosin and examined by light microscopy in a blinded fashion as previously described (Stier CT et al. J Pharmacol Exp Ther (1992) 260:1410-1415). Glomerular damage was categorized as ischemic or thrombotic. Ischemic lesions were defined as retraction of glomerular capillary tufts with or without appreciable mesangiolysis. Glomerular thrombotic lesions were defined as any one of a combination of the following: segmental to global fibrinoid necrosis, focal thrombosis of glomerular capillaries, swelling and proliferation of intracapillary (endothelial and mesangial) and/or extracapillary cells (crescents), and expansion of reticulated mesangial matrix with or without significant hypercellularity. […] Vascular thrombotic lesions were defined as any one or a combination of the following: mural fibrinoid necrosis, extravasation and fragmentation of red blood cells, and luminal and/or mural thrombosis. Proliferative arteriopathy was characterized by proliferation of markedly swollen myointimal cells with swollen round to ovoid vesicular nuclei surrounded by mucinous extracellular matrix ("onion skinning") often resulting in nodular thickening. Vascular damage was expressed as the number of arteries and arterioles with lesions per 100 glomeruli. The presence of casts and tubular (ischemic) retraction and simplification was assessed semiquantitatively.
Statistical Analysis. Significant effects with respect to treatment and time were determined by two-way analysis of variance. Data with only one grouping variable were analyzed statistically by Student's unpaired t tests. When more than two groups were compared, one-way analysis of variance was performed followed by the post-hoc Newman-Keul's multiple comparison test. Data were analyzed using version 2.01 of the GraphPad Prism statistical software package (GraphPad Software Inc., San Diego, CA). P < .05 was considered statistically significant. Data are reported as mean ± SEM.

[5] = test system: patients with severe heart failure; settings: NYHA Functional Class IV, enalapril plus diuretics compared to placebo plus diuretics; cited from earlier work
[6] = Physical stability of solid state forms; type: physicochemical; settings: at temperatures below the enantiotropic transition temperature

CC(=O)S[C@@H]1CC2=CC(=O)CC[C@]2(C)[C@H]2CC[C@@]3(C)[C@@H](CC[C@@]34CCC(=O)O4)[C@H]12 [Spironolactone, spironolactone, reference compound]
ABPM DBP, adjusted mean change from baseline to final visit [1]: -8.7 mm Hg | ABPM SBP, adjusted mean change from baseline to final visit [1]: -15.8 mm Hg | Cuff DBP, adjusted mean change from baseline to final visit [1]: -9.5 mm Hg | Cuff SBP, adjusted mean change from baseline to final visit [1]: -16.7 mm Hg | SAP ([2]; 100 mg/kg s.c.): 171 ± 5 mmHg | SAP ([2]; 200 mg/kg s.c.): 170 ± 9 mmHg | morbidity and mortality [3]: reduced morbidity and mortality

C[C@H](CS)C(=O)N1CCC[C@H]1C(=O)O [Captopril, captopril, reference compound]
Glomerular damage, Ischemic ([4]; Captopril 50 mg/kg/d + vehicle, or CAP, Angiotensin II 25 ng/min + Eplerenone 100 mg/kg/d, 2 weeks): 0 ± 0 lesions/100 glomeruli | Glomerular damage, Thrombotic ([4]; as Table A-8B, 2 weeks): 0±0 lesions/100 glomeruli | Glomerular damage, Total ([4]; as Table A-8B, 2 weeks): 0±0 lesions/100 glomeruli | Renal arteriopathy, Proliferative ([4]; as Table A-8B, 2 weeks): 0±0 lesions/100 glomeruli | Renal arteriopathy, Thrombotic ([4]; as Table A-8B, 2 weeks): 0±0 lesions/100 glomeruli | Renal arteriopathy, Total ([4]; as Table A-8B, 2 weeks): 0±0 lesions/100 glomeruli | tubules with ischemic retraction and simplification ([4]; captopril plus vehicle, or captopril plus angiotensin II plus eplerenone): absent

CCOC(=O)[C@H](CCc1ccccc1)N[C@@H](C)C(=O)N1CCC[C@H]1C(=O)O [enalapril]
reduction of mortality at one year [5]: 31%

COC(=O)[C@@H]1CC2=CC(=O)CC[C@]2(C)[C@@]23O[C@@H]2C[C@@]2(C)[C@@H](CC[C@@]24CCC(=O)O4)[C@H]13 [Form L]
physical stability relative to Form H [6]: greater physical stability
